Laboratory results reported in patent US11173151B2, “Substituted triazole derivatives and uses thereof” (BAYER AKTIENGESELLSCHAFT, priority 2017, dated 2021).
pIC50: −log10 of the molar value. Where two headings read alike, the source gives them in different places.

How the values were obtained:
human V1a receptor = biological target: T1, human V1a receptor (Homo sapiens, UniProt P37288); assay: Cellular in vitro assay for determining vasopressin receptor activity, V1a receptor cell line (CHO, aequorin luminescence); type: cell-based; conditions: for pIC50: CHO cell line transfected with human V1a receptor, [Arg]-vasopressin at EC50 concentration, read-out: IC50 hV1a; for ratio IC50 hV2/hV1a: selectivity ratio IC50 hV2 / IC50 hV1a
T1 construct: expressed in transfected cells; host or cells: CHO K1 (ATCC), also stably transfected with a modified aequorin
T1 sequence (P37288 whole entry): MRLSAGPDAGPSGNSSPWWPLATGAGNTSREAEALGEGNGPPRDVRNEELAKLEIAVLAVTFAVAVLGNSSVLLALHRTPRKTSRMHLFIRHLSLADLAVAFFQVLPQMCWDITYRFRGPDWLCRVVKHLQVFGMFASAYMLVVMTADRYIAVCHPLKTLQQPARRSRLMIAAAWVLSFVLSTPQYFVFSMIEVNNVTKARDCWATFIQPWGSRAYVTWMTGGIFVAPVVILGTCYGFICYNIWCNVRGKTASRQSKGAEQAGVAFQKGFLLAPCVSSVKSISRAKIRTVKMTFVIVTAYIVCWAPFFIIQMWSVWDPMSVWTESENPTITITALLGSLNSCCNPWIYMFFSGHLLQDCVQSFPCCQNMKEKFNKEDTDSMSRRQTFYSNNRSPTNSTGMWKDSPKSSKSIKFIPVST
How it was run: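 IC50 from inhibition of [Arg]-vasopressin (EC50 concentration)-evoked aequorin luminescence in CHO K1 cells, with 10-min compound pretreatment.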

human V2 receptor = biological target: T2, human V2 receptor (Homo sapiens, UniProt P30518); assay: Cellular in vitro assay for determining vasopressin receptor activity, V2 receptor cell line (CHO, CRE-luciferase); type: cell-based; conditions: CHO cell line transfected with human V2 receptor, [Arg8]-vasopressin at EC50 concentration, read-out: IC50 hV2
T2 construct: expressed in transfected cells; host or cells: CHO K1 (ATCC) expressing firefly luciferase under a CRE-responsive promoter
T2 sequence (P30518 whole entry): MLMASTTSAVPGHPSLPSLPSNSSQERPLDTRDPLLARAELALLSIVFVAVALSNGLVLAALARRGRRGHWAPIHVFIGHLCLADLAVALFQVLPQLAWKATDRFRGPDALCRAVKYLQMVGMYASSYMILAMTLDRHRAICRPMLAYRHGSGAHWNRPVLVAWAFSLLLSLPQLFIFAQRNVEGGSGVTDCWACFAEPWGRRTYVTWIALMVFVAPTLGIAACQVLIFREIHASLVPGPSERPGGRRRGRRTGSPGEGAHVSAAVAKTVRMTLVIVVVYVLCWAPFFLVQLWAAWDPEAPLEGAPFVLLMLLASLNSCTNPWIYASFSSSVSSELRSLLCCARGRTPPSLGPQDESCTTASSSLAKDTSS

| Structure (SMILES) | pIC50 (human V1a receptor) | ratio IC50 hV2/hV1a (human V1a receptor) | pIC50 (human V2 receptor) | pIC50 (human V2 receptor; 3 hours) |
| --- | --- | --- | --- | --- |
| O=C(N[C@H]1C[C@H]1F)c1ccncc1-n1nc(Cn2nc(-c3ccc(Cl)cc3)n(C[C@H](O)C(F)(F)F)c2=O)nc1C(=O)N1CCS(=O)(=O)CC1 (racemic) [Example 523, 3-{3-({3-(4-Chlorophenyl)-5-oxo-4-[(2S)-3,3,3-trifluoro-2-hydroxypropyl]-4,5-dihydro-1H-1,2,4-triazol-1-yl}methyl)-5-[(1,1-dioxidothiomorpholin-4-yl)carbonyl]-1H-1,2,4-triazol-1-yl}-N-[2-fluorocyclopropyl]pyridine-4-carboxamide] | 6.44 | 3.0 | 5.96 |  |
| O=C1CN(C(=O)c2nc(Cn3nc(-c4ccc(Cl)cc4)n(C[C@H](O)C(F)(F)F)c3=O)nn2-c2ncccc2C(=O)N[C@H]2C[C@H]2F)CCN1 (racemic) [Example 527, 2-{3-({3-(4-chlorophenyl)-5-oxo-4-[(2S)-3,3,3-trifluoro-2-hydroxypropyl]-4,5-dihydro-1H-1,2,4-triazol-1-yl}methyl)-5-[(3-oxopiperazin-1-yl)carbonyl]-1H-1,2,4-triazol-1-yl}-N-[2-fluorocyclopropyl]pyridine-3-carboxamide] | 5.97 | 1.4 | 5.81 |  |
| O=C(N[C@H]1C[C@H]1F)c1cccnc1-n1nc(Cn2nc(-c3ccc(Cl)cc3)n(C[C@H](O)C(F)(F)F)c2=O)nc1C(=O)N1CCS(=O)(=O)CC1 (racemic) [Example 533, 2-{3-({3-(4-Chlorophenyl)-5-oxo-4-[(2S)-3,3,3-trifluoro-2-hydroxypropyl]-4,5-dihydro-1H-1,2,4-triazol-1-yl}methyl)-5-[(1,1-dioxidothiomorpholin-4-yl)carbonyl]-1H-1,2,4-triazol-1-yl}-N-[2-fluorocyclopropyl]pyridine-3-carboxamide] | 6.84 | 21.8 | 5.50 |  |
| CC(C)(N)CNC(=O)c1nc(Cn2nc(-c3ccc(Cl)cc3)n(C[C@H](O)C(F)(F)F)c2=O)nn1-c1cnccc1C(=O)N[C@H]1C[C@H]1F (racemic) [Example 535, 3-{5-[(2-amino-2-methylpropyl)carbamoyl]-3-({3-(4-chlorophenyl)-5-oxo-4-[(2S)-3,3,3-trifluoro-2-hydroxypropyl]-4,5-dihydro-1H-1,2,4-triazol-1-yl}methyl)-1H-1,2,4-triazol-1-yl}-N-[2-fluorocyclopropyl]pyridine-4-carboxamide] | 7.08 | 56.0 | 5.34 |  |
| O=C(Nc1ccncc1-n1cnc(Cn2nc(-c3ccc(Cl)cc3)n(C[C@H](O)C(F)(F)F)c2=O)n1)[C@@H]1C[C@@H]1F (single isomer, unassigned) [Example 35] | 7.98 | 52.7 |  | 6.26 |
| O=C(Nc1cccnc1-n1cnc(Cn2nc(-c3ccc(Cl)cc3)n(C[C@H](O)C(F)(F)F)c2=O)n1)C1CC1(F)F (single isomer, unassigned) [Example 42] | 7.64 | 27.0 |  | 6.21 |
| O=C(Nc1cccnc1-n1cnc(Cn2nc(-c3ccc(Cl)cc3)n(C[C@H](O)C(F)(F)F)c2=O)n1)C1CC1(F)F (single isomer, unassigned) [Example 43] | 8.23 | 36.5 |  | 6.67 |
| O=C(Nc1cccnc1-n1cnc(Cn2nc(-c3ccc(Cl)cc3)n(C[C@H](O)C(F)(F)F)c2=O)n1)C1CCS(=O)(=O)C1 (single isomer, unassigned) [Example 51] | 8.30 | 153.0 |  | 6.12 |
| O=C(Nc1cccnc1-n1cnc(Cn2nc(-c3ccc(Cl)cc3)n(C[C@H](O)C(F)(F)F)c2=O)n1)C1CCS(=O)(=O)C1 (single isomer, unassigned) [Example 52] | 7.94 | 173.9 |  | 5.70 |
| O=C(Nc1cccnc1-n1cnc(Cn2nc(-c3ccc(Cl)cc3)n(C[C@H](O)C(F)(F)F)c2=O)n1)C1CC1F (single isomer, unassigned) [Example 55] | 8.44 | 190.4 |  | 6.16 |
| O=C(Nc1cccnc1-n1cnc(Cn2nc(-c3ccc(Cl)cc3)n(C[C@H](O)C(F)(F)F)c2=O)n1)C1CC1F (single isomer, unassigned) [Example 56] | 8.36 | 92.0 |  | 6.39 |
| O=C(Nc1cccnc1-n1cnc(Cn2nc(-c3ccc(Cl)cc3)n(C[C@H](O)C(F)(F)F)c2=O)n1)C1CC1F (single isomer, unassigned) [Example 60] | 8.37 | 208.2 |  | 6.05 |
| O=C(Nc1cccnc1-n1cnc(Cn2nc(-c3ccc(Cl)cc3)n(C[C@H](O)C(F)(F)F)c2=O)n1)C1CC1F (single isomer, unassigned) [Example 61] | 8.36 | 111.5 |  | 6.31 |
| O=C(Nc1ncccc1-n1cnc(Cn2nc(-c3ccc(Cl)cc3)n(C[C@H](O)C(F)(F)F)c2=O)n1)C1CC1F (single isomer, unassigned) [Example 77] | 7.92 | 195.8 |  | 5.63 |
| O=C(Nc1ncccc1-n1cnc(Cn2nc(-c3ccc(Cl)cc3)n(C[C@H](O)C(F)(F)F)c2=O)n1)C1CC1F (single isomer, unassigned) [Example 78] | 7.71 | 187.2 |  | 5.44 |
| O=C(Nc1ncccc1-n1cnc(Cn2nc(-c3ccc(Cl)cc3)n(C[C@H](O)C(F)(F)F)c2=O)n1)C1CC1F (single isomer, unassigned) [Example 86] | 8.35 | 311.1 |  | 5.85 |
| O=C1CCC(NC(=O)c2ccccc2-n2cnc(Cn3nc(-c4ccc(Cl)cc4)n(CC(O)C(F)(F)F)c3=O)n2)CN1 (single isomer, unassigned) [Example 192, 2-[3-({3-(4-Chlorophenyl)-5-oxo-4-[3,3,3-trifluoro-2-hydroxypropyl]-4,5-dihydro-1H-1,2,4-triazol-1-yl}methyl)-1H-1,2,4-triazol-1-yl]-N-[6-oxopiperidin-3-yl]benzamide] | 7.13 | 98.7 |  | 5.13 |
| O=C1CCC(NC(=O)c2ccccc2-n2cnc(Cn3nc(-c4ccc(Cl)cc4)n(CC(O)C(F)(F)F)c3=O)n2)CN1 (single isomer, unassigned) [Example 193, 2-[3-({3-(4-Chlorophenyl)-5-oxo-4-[3,3,3-trifluoro-2-hydroxypropyl]-4,5-dihydro-1H-1,2,4-triazol-1-yl}methyl)-1H-1,2,4-triazol-1-yl]-N-[6-oxopiperidin-3-yl]benzamide] | 7.10 | 38.8 |  | 5.51 |
| CC(C)(N)CNc1ccncc1-n1cnc(Cn2nc(-c3ccc(Cl)cc3)n(C[C@H](O)C(F)(F)F)c2=O)n1 [Example 1, 2-[(1-{4-[(2-Amino-2-methylpropyl)amino]pyridin-3-yl}-1H-1,2,4-triazol-3-yl)methyl]-5-(4-chlorophenyl)-4-[(2S)-3,3,3-trifluoro-2-hydroxypropyl]-2,4-dihydro-3H-1,2,4-triazol-3-one] | 5.71 | 4.0 |  | 5.10 |
| CC(C)(O)CNc1ccncc1-n1cnc(Cn2nc(-c3ccc(Cl)cc3)n(C[C@H](O)C(F)(F)F)c2=O)n1 [Example 2, 5-(4-Chlorophenyl)-2-[(1-{4-[(2-hydroxy-2-methylpropyl)amino]pyridin-3-yl}-1H-1,2,4-triazol-3-yl)methyl]-4-[(2S)-3,3,3-trifluoro-2-hydroxypropyl]-2,4-dihydro-3H-1,2,4-triazol-3-one] | 6.23 | 0.4 |  | 6.68 |
| NC1(CNc2ccncc2-n2cnc(Cn3nc(-c4ccc(Cl)cc4)n(C[C@H](O)C(F)(F)F)c3=O)n2)CC1 [Example 3, 2-{[1-(4-{[(1-Aminocyclopropyl)methyl]amino}pyridin-3-yl)-1H-1,2,4-triazol-3-yl]methyl}-5-(4-chlorophenyl)-4-[(2S)-3,3,3-trifluoro-2-hydroxypropyl]-2,4-dihydro-3H-1,2,4-triazol-3-one] | 5.91 | 0.6 |  | 6.14 |
| O=c1n(Cc2ncn(-c3cnccc3NCC3(O)CC3)n2)nc(-c2ccc(Cl)cc2)n1C[C@H](O)C(F)(F)F [Example 4, 5-(4-Chlorophenyl)-2-{[1-(4-{[(1-hydroxycyclopropyl)methyl]amino}pyridin-3-yl)-1H-1,2,4-triazol-3-yl]methyl}-4-[(2S)-3,3,3-trifluoro-2-hydroxypropyl]-2,4-dihydro-3H-1,2,4-triazol-3-one] | 6.94 | 1.1 |  | 6.90 |
| O=C1CN(c2ccncc2-n2cnc(Cn3nc(-c4ccc(Cl)cc4)n(C[C@H](O)C(F)(F)F)c3=O)n2)CCN1 [Example 5, 4-{3-[3-({3-(4-Chlorophenyl)-5-oxo-4-[(2S)-3,3,3-trifluoro-2-hydroxypropyl]-4,5-dihydro-1H-1,2,4-triazol-1-yl}methyl)-1H-1,2,4-triazol-1-yl]pyridin-4-yl}piperazin-2-one] | 6.74 | 16.7 |  | 5.52 |
| O=c1n(Cc2ncn(-c3cnccc3N3CCS(=O)(=O)CC3)n2)nc(-c2ccc(Cl)cc2)n1C[C@H](O)C(F)(F)F [Example 6, 5-(4-Chlorophenyl)-2-({1-[4-(1,1-dioxidothiomorpholin-4-yl)pyridin-3-yl]-1H-1,2,4-triazol-3-yl}methyl)-4-[(2S)-3,3,3-trifluoro-2-hydroxypropyl]-2,4-dihydro-3H-1,2,4-triazol-3-one] | 7.15 | 35.0 |  | 5.60 |
